For data set [1], the system named is Hepatitis C virus. As to the kind of experiment: microbe, parasite or virus in culture. The format is functional, organism-based, Hepacivirus hominis, genotype 1b, Huh-luc/neo-ET.
Description: Antiviral activity against HCV-1b infected human Huh-luc/neo-ET replicon cells after 72 hrs by luciferase based replicon assay
A short description of data set [2]: in vitro. Particulars: human.
Description: Metabolic stability in human liver microsomes assessed as compound remaining after 60 mins at 1 uM
For data set [3], the system named is Hepatitis C virus. The data set can be described thus: microbe, parasite or virus in culture. It is filed as functional, organism-based, Hepacivirus hominis, subtype 1a, Huh-lunet.
Description: Antiviral activity against HCV-1a infected in human Huh-lunet cells after 4 days by luciferase based replicon assay
Data set [4] can be described thus: in vitro. The settings on record: human, t1/2.
For data set [5] the following is noted: rhesus monkey, microsomes, 1 h, 5 µM.
Description: (§2) Metabolic stability in monkey liver microsomes assessed as compound remaining after 60 mins at 5 uM
Data set [6] in a line: in vitro. Particulars: human, Caco-2.
Description: Apparent permeability from apical side to basolateral side of human Caco-2 cells at 10 uM after 3 hrs
Data set [7] is described as follows: Clearance in cynomolgus monkey at 1 mg/kg, iv. The format is ADME, organism-based, Macaca fascicularis. More on the design: dose 1 mg/kg, route intravenous. Particulars: in vivo.
Data set [8] has as its system Cynomolgus monkey. The settings on record: in vivo, iv, 1 mg/kg.
A short description of data set [9]: (§1) Oral bioavailability in cynomolgus monkey at 1 mg/kg. Particulars: in vivo. The format is ADME, organism-based, Macaca fascicularis.
For data set [10] the following is noted: rhesus monkey, microsomes, 5 µM.
Description: (§3) Metabolic stability in monkey liver microsomes assessed as half life at 5 uM
The nature of another data set: physchem. Particulars: aqueous medium, pH 7.5.
The subject of data set [11] is Cynomolgus monkey. The settings on record: in vivo, po, 1 mg/kg.
Data set [12] in a line: in vitro. The settings on record: rhesus monkey.
Description: as §3
Data set [13] in a line: in vitro. Particulars: rhesus monkey, Stability.
Description: as §2
A short description of data set [14]: Cytotoxicity against human HuH7 cells assessed as GAPDH release. The format is cell-based, Huh-7.
In data set [15] the test system is Cynomolgus monkey. The data set can be described thus: AUC (0 to infinity) in cynomolgus monkey at 0.5 mg/kg, po. More on the design: time infinity, dose 0.5 mg/kg, route oral. Particulars: in vivo. The format is ADME, organism-based, Macaca fascicularis, Plasma.
Data set [16] is described as follows: Clearance in cynomolgus monkey at 0.5 mg/kg, iv. The settings on record: in vivo. It is filed as ADME, organism-based, Macaca fascicularis. Further details: dose 0.5 mg/kg, route intravenous.
A short description of data set [17]: Oral bioavailability in cynomolgus monkey at 0.5 mg/kg. The settings on record: in vivo. It is filed as ADME, organism-based, Macaca fascicularis.
Data set [18] relates to Cynomolgus monkey. As to the kind of experiment: AUC (0 to infinity) in cynomolgus monkey at 0.5 mg/kg, iv. Further details: time infinity, dose 0.5 mg/kg, route intravenous. The settings on record: in vivo. The format is ADME, organism-based, Macaca fascicularis, Plasma.
Data set [19] has as its system Cynomolgus monkey. The data set is described as §1. Particulars: in vivo. It is filed as ADME, organism-based, Macaca fascicularis.
The mark [20] stands for this setting: Hepatitis C virus, genotype 1b, Huh-luc/neo-ET, 72 h.
Setting [21] is: Hepatitis C virus, subtype 1a, Huh-lunet, 96 h.

Results on 11 molecules are retold here after ChEMBL document CHEMBL1154345, “Discovery of tricyclic 5,6-dihydro-1H-pyridin-2-ones as novel, potent, and orally bioavailable inhibitors of HCV NS5B polymerase” (Bioorg Med Chem Lett, 2009).

Broadly, the EC50 is the concentration needed to bring the measured effect to its halfway point. As a reminder, the share remaining is the share of the starting amount still present when the sample was taken. By half-life is commonly meant how long it takes for the measured level to halve. Usually Papp A→B stands for how fast a substance crosses the layer from the apical side. What is called clearance is the rate of elimination divided by the concentration. By AUC is commonly meant the area under the concentration-time curve, a measure of exposure. The bioavailability is the share of a dose that reaches the circulation, judged against a reference dose that is usually intravenous. Usually solubility stands for how much of the substance goes into solution per volume. As a reminder, the CC50 is the concentration giving 50% cytotoxicity.

Description for physchem: Aqueous solubility at pH 7.5

In the case of `CS(=O)(=O)Nc1ccc2c(c1)S(=O)(=O)N=C(C1=C(O)[C@@H]3C4CCC(CC4)[C@@H]3N(Cc3cccc(F)c3)C1=O)N2`, the EC50 with Hepatitis C virus [1] (setting [20]) is 0.004 µM; with Hepatitis C virus [3] (setting [21]), 0.098 µM. The molecule also registered a share remaining at 1 h, 1 µM in “in vitro [2]” (microsomes) of 88%. The molecule further returned a half-life at 1 µM in the data set “in vitro [4]” (microsomes) above 1 h.
With `CS(=O)(=O)Nc1ccc2c(c1)S(=O)(=O)N=C(C1=C(O)[C@@H]3[C@H]4CC[C@H](C4)[C@@H]3N(Cc3ccc(F)c(F)c3)C1=O)N2`, in data set [5], the Stability was determined as 95%. Further, the values for the EC50 in the data set on Hepatitis C virus [1] (setting [20]) and with Hepatitis C virus [3] (setting [21]) were 0.007 µM and 0.037 µM, respectively. The Papp A→B at 3 h, 10 µM in the data set “in vitro [6]” worked out at 1.05 ×10⁻⁶ cm/s. For the same molecule, the clearance in [7] stood at 0.37 mL/min/kg. The values for the AUC in the data set on Cynomolgus monkey [8] and with Cynomolgus monkey [11] were 44800 ng·h/mL and 20300 ng·h/mL, respectively. Besides, the bioavailability in data set [9] came to 45%. The same molecule came in with a share remaining at 1 h, 1 µM in “in vitro [2]” (liver microsomes) of 100%. The same molecule showed a t1/2 in [10] of 1 h. Further, in the data set “physchem”, the solubility was above 100 µM. In addition, the half-life at 1 µM in the data set “in vitro [4]” (liver microsomes) was above 1 h.
With `Cc1cc(CN2C(=O)C(C3=NS(=O)(=O)c4cc(NS(C)(=O)=O)ccc4N3)=C(O)[C@@H]3[C@H]4CC[C@H](C4)[C@@H]32)ccc1F`, the values for the EC50 with Hepatitis C virus [1] (setting [20]) and in the data set on Hepatitis C virus [3] (setting [21]) were 0.006 µM and 0.034 µM, respectively. The molecule further had a half-life at 5 µM in “in vitro [12]” (liver microsomes) of 0.817 h. This molecule gave a clearance in [7] of 0.67 mL/min/kg. For the same molecule, the AUC with Cynomolgus monkey [8] turned out to be 25000 ng·h/mL; in the data set on Cynomolgus monkey [11] it was 8780 ng·h/mL. The bioavailability in [9] turned out to be 35%. For the same molecule, the share remaining at 1 h, 1 µM in the data set “in vitro [2]” (liver microsomes) is 70%. In “in vitro [4]” (liver microsomes), the half-life at 1 µM was above 1 h.
With `CS(=O)(=O)Nc1ccc2c(c1)S(=O)(=O)N=C(C1=C(O)[C@@H]3[C@@H]([C@H]4CC[C@@H]3O4)N(Cc3ccc(F)cc3)C1=O)N2`, the values for the 50% effective concentration (EC50) with Hepatitis C virus [1] (setting [20]) and in the data set on Hepatitis C virus [3] (setting [21]) were 0.006 µM and 0.066 µM, respectively. For the same molecule, the Papp A→B at 3 h, 10 µM in “in vitro [6]” came out at 0.08 ×10⁻⁶ cm/s. The same molecule had a half-life at 5 µM in the data set “in vitro [12]” (liver microsomes) above 1 h. In addition, the clearance in data set [7] was 6.3 mL/min/kg. The molecule also returned an amount remaining at 1 h, 5 µM in the data set “in vitro [13]” (liver microsomes) of 100%. Also, the figures for the AUC in the data set on Cynomolgus monkey [8] and in the data set with Cynomolgus monkey [11] were 2650 ng·h/mL and 90 ng·h/mL, respectively. The CC50 in data set [14] was above 1 µM. For the same molecule, the bioavailability in data set [9] came out at 3%. The molecule also registered a share remaining at 1 h, 1 µM in the data set “in vitro [2]” (liver microsomes) of 100%. Further, in the data set “physchem”, the solubility is above 100 µM. In the data set “in vitro [4]” (liver microsomes), this molecule displayed a half-life at 1 µM above 1 h.
`CS(=O)(=O)Nc1ccc2c(c1)S(=O)(=O)N=C(C1=C(O)[C@H]3[C@H]4CC[C@H](C4)[C@H]3N(Cc3ccc(F)cc3)C1=O)N2`: the EC50 in the data set on Hepatitis C virus [1] (setting [20]) stood at 0.27 µM; in the data set with Hepatitis C virus [3] (setting [21]) it was 2.5 µM. The exposure (AUC) in the data set on Cynomolgus monkey [15] was 409 ng·h/mL; in the data set on Cynomolgus monkey [18] it was 1570 ng·h/mL. For the same molecule, the half-life at 5 µM in the data set “in vitro [12]” (microsomes) is above 1 h. In the data set “in vitro [13]” (microsomes), this molecule came in with an amount remaining at 1 h, 5 µM of 95%. Moreover, the clearance in data set [16] came out at 5.7 mL/min/kg. The CC50 in [14] is above 33 µM. Further, in [17], the bioavailability came to 26%. In addition, in the data set “in vitro [2]” (microsomes), the fraction remaining at 1 h, 1 µM came out at 75%. The half-life at 1 µM in the data set “in vitro [4]” (microsomes) is above 1 h.
Consider `CS(=O)(=O)Nc1ccc2c(c1)S(=O)(=O)N=C(C1=C(O)[C@@H]3C4CCC(CC4)[C@@H]3N(Cc3ccc(F)cc3)C1=O)N2`, for which the figures for the EC50 with Hepatitis C virus [1] (setting [20]) and in the data set with Hepatitis C virus [3] (setting [21]) were 0.0008 µM and 0.006 µM, respectively. Moreover, in [14], the CC50 was above 1 µM. For the same molecule, the amount remaining at 1 h, 1 µM in “in vitro [2]” (microsomes) was found to be 86%. The half-life at 1 µM in “in vitro [4]” (microsomes) was above 1 h.
As for `CS(=O)(=O)Nc1ccc2c(c1)S(=O)(=O)NC(C1=C(O)[C@@H]3CCC[C@@H]3N(Cc3ccc(F)cc3)C1=O)=N2`, the EC50 came to 0.023 µM with Hepatitis C virus [1] (setting [20]) and 0.55 µM in the data set on Hepatitis C virus [3] (setting [21]). The molecule further returned a half-life at 5 µM in the data set “in vitro [12]” (microsomes) above 1 h. Further, in “in vitro [13]” (microsomes), the fraction remaining at 1 h, 5 µM was found to be 100%. In data set [14], the CC50 was above 100 µM. In addition, in the data set “in vitro [2]” (microsomes), the share remaining at 1 h, 1 µM stood at 85%. Besides, in the data set “physchem”, the solubility was above 100 µM. The molecule further came in with a half-life at 1 µM in “in vitro [4]” (microsomes) above 1 h.
Take `CS(=O)(=O)Nc1ccc2c(c1)S(=O)(=O)N=C(C1=C(O)C3CC=CCC3N(Cc3ccc(F)cc3)C1=O)N2` (racemic): the EC50 in the data set on Hepatitis C virus [1] (setting [20]) amounted to 0.007 µM; in the data set on Hepatitis C virus [3] (setting [21]) it was 0.081 µM. Besides, in [14], the CC50 was above 1 µM. This molecule also registered a share remaining at 1 h, 1 µM in the data set “in vitro [2]” (liver microsomes) of 87%. The molecule also registered a half-life at 1 µM in the data set “in vitro [4]” (liver microsomes) above 1 h.
For the molecule `CS(=O)(=O)Nc1ccc2c(c1)S(=O)(=O)N=C(C1=C(O)C3C4CCC(C4)C3N(Cc3ccc(F)cc3)C1=O)N2` (racemic; 2a), the figures for the EC50 in the data set on Hepatitis C virus [1] (huh-luc/neo-et) and with Hepatitis C virus [3] (huh-lunet) were 0.005 µM and 0.33 µM, respectively. In “in vitro [12]” (microsomes), this molecule gave a half-life at 5 µM above 1 h. The molecule also had a share remaining at 1 h, 5 µM in the data set “in vitro [13]” (microsomes) of 91%. Also, the AUC in the data set on Cynomolgus monkey [8] turned out to be 63900 ng·h/mL; in the data set on Cynomolgus monkey [11] it was 30700 ng·h/mL. Moreover, the CC50 in [14] is above 1 µM. Besides, in the data set with Cynomolgus monkey [19], the F came to 48%. The molecule further had a half-life at 1 µM in “in vitro [4]” (microsomes) of 0.567 h.
Molecule `CS(=O)(=O)Nc1ccc2c(c1)S(=O)(=O)N=C(C1=C(O)C3C4CCC(C4)C3N(Cc3ccc(F)cc3)C1=O)N2` (racemic; 2b) gave a Stability in data set [5] of 92%. Besides, the EC50 with Hepatitis C virus [1] (huh-luc/neo-et) turned out to be 0.002 µM; in the data set with Hepatitis C virus [3] (huh-lunet), 0.091 µM. The AUC came to 5500 ng·h/mL in the data set with Cynomolgus monkey [8] and 1350 ng·h/mL with Cynomolgus monkey [11]. The molecule further came in with a F in the data set with Cynomolgus monkey [19] of 25%. Moreover, in “in vitro [2]” (microsomes), the fraction remaining at 1 h, 1 µM came to 73%.
For `CS(=O)(=O)Nc1ccc2c(c1)S(=O)(=O)N=C(C1=C(O)[C@@H]3[C@H]4CC[C@H](C4)[C@@H]3N(Cc3ccc(F)cc3)C1=O)N2` [SETROBUVIR], the EC50 turned out to be 0.003 µM in the data set on Hepatitis C virus [1] (setting [20]) and 0.018 µM in the data set with Hepatitis C virus [3] (setting [21]). The half-life at 5 µM in “in vitro [12]” (microsomes) is above 1 h. The molecule further had a clearance in [7] of 0.18 mL/min/kg. Also, the fraction remaining at 1 h, 5 µM in “in vitro [13]” (microsomes) amounted to 98%. In addition, the AUC worked out at 94900 ng·h/mL in the data set with Cynomolgus monkey [8] and 49400 ng·h/mL in the data set with Cynomolgus monkey [11]. Further, in data set [14], the CC50 is above 100 µM. This molecule also gave a bioavailability in [9] of 52%. In “in vitro [2]” (microsomes), this molecule showed a share remaining at 1 h, 1 µM of 75%. Further, the half-life at 1 µM in the data set “in vitro [4]” (microsomes) is above 1 h.
